Results as given in ChEMBL document CHEMBL5579827, “Discovery of orally bioavailable phenyltetrazolium derivatives for the acute treatment and the secondary prevention of ischemic stroke” (Eur J Med Chem, 2024).
The source made the active and inactive calls. No cut-off for these calls is given here.

Legend:
N2a [1] = experiment: Neuroprotective activity against OGD/R induced cell injury in mouse N2a cells assessed as cell viability at 10 uM preincubated under hypoxic condition for 2 hrs and measured after 24 hrs (reference value: 28.66 to 30.22 %); assay type: functional; settings: time 26 hrs, read-out: Activity
[2] = Tmax in Sprague-Dawley rat at 10 mg/kg, po measured upto 8 hrs by LC-MS/MS analysis; assay type: ADME, organism-based; settings: in vivo
[3] = Half-life in Sprague-Dawley rat at 10 mg/kg, po measured upto 8 hrs by LC-MS/MS analysis; assay type: ADME, organism-based; settings: in vivo
[4] = Cmax in Sprague-Dawley rat at 10 mg/kg, po measured upto 8 hrs by LC-MS/MS analysis; assay type: ADME, organism-based; settings: in vivo
[5] = AUC(0 to t) in Sprague-Dawley rat at 10 mg/kg, po measured upto 8 hrs by LC-MS/MS analysis; assay type: ADME, organism-based; settings: in vivo
[6] = AUC(0 to infinity) in Sprague-Dawley rat at 10 mg/kg, po measured upto 8 hrs by LC-MS/MS analysis; assay type: ADME, organism-based; settings: in vivo
[7] = Metabolic stability in human liver microsomes assessed as half life at 50 uM preincubated with NADPH for 5 mins followed by compound addition and measured upto 60 mins by LC-MS/MS analysis; assay type: ADME, Microsome
[8] = Metabolic stability in human liver microsomes assessed as intrinsic clearance at 50 uM preincubated with NADPH for 5 mins followed by compound addition and measured upto 60 mins by LC-MS/MS analysis; assay type: ADME, Microsome; settings: read-out: CLH
[9] = Metabolic stability in monkey liver microsomes assessed as half life at 50 uM preincubated with NADPH for 5 mins followed by compound addition and measured upto 60 mins by LC-MS/MS analysis; assay type: ADME, Macaca mulatta, Microsome; settings: rhesus monkey
[10] = Metabolic stability in monkey liver microsomes assessed as intrinsic clearance at 50 uM preincubated with NADPH for 5 mins followed by compound addition and measured upto 60 mins by LC-MS/MS analysis; assay type: ADME, Macaca mulatta, Microsome; settings: rhesus monkey, read-out: CLH
[11] = Metabolic stability in dog liver microsomes assessed as half life at 50 uM preincubated with NADPH for 5 mins followed by compound addition and measured upto 60 mins by LC-MS/MS analysis; assay type: ADME, Canis lupus familiaris, Microsome
[12] = Metabolic stability in dog liver microsomes assessed as intrinsic clearance at 50 uM preincubated with NADPH for 5 mins followed by compound addition and measured upto 60 mins by LC-MS/MS analysis; assay type: ADME, Canis lupus familiaris, Microsome; settings: read-out: CLH
[13] = Metabolic stability in rat liver microsomes assessed as half life at 50 uM preincubated with NADPH for 5 mins followed by compound addition and measured upto 60 mins by LC-MS/MS analysis; assay type: ADME, Microsome
[14] = Metabolic stability in rat liver microsomes assessed as intrinsic clearance at 50 uM preincubated with NADPH for 5 mins followed by compound addition and measured upto 60 mins by LC-MS/MS analysis; assay type: ADME, Microsome; settings: read-out: CLH
[15] = Metabolic stability in mouse liver microsomes assessed as half life at 50 uM preincubated with NADPH for 5 mins followed by compound addition and measured upto 60 mins by LC-MS/MS analysis; assay type: ADME, Microsome
[16] = Metabolic stability in mouse liver microsomes assessed as intrinsic clearance at 50 uM preincubated with NADPH for 5 mins followed by compound addition and measured upto 60 mins by LC-MS/MS analysis; assay type: ADME, Microsome; settings: read-out: CLH
[17] = Tmax in ICR mouse at 10 mg/kg, po measured upto 8 hrs by LC-MS/MS analysis; assay type: ADME, organism-based; settings: in vivo
[18] = Half-life in ICR mouse at 10 mg/kg, po measured upto 8 hrs by LC-MS/MS analysis; assay type: ADME, organism-based; settings: in vivo
[19] = Cmax in ICR mouse at 10 mg/kg, po measured upto 8 hrs by LC-MS/MS analysis; assay type: ADME, organism-based; settings: in vivo
[20] = AUC(0 to t) in ICR mouse at 10 mg/kg, po measured upto 8 hrs by LC-MS/MS analysis; assay type: ADME, organism-based; settings: in vivo
[21] = AUC(0 to infinity) in ICR mouse at 10 mg/kg, po measured upto 8 hrs by LC-MS/MS analysis; assay type: ADME, organism-based; settings: in vivo
[22] = Oral bioavailability in ICR mouse at 10 mg/kg measured upto 8 hrs by LC-MS/MS analysis; assay type: ADME, organism-based; settings: in vivo
[23] = Tmax in ICR mouse at 1 mg/kg, iv measured upto 8 hrs by LC-MS/MS analysis; assay type: ADME, organism-based; settings: in vivo
[24] = Cmax in ICR mouse at 1 mg/kg, iv measured upto 8 hrs by LC-MS/MS analysis; assay type: ADME, organism-based; settings: in vivo
[25] = AUC(0 to t) in ICR mouse at 1 mg/kg, iv measured upto 8 hrs by LC-MS/MS analysis; assay type: ADME, organism-based; settings: in vivo
[26] = AUC(0 to infinity) in ICR mouse at 1 mg/kg, iv measured upto 8 hrs by LC-MS/MS analysis; assay type: ADME, organism-based; settings: in vivo
[27] = Cmax in Sprague-Dawley rat at 10 mg/kg, po measured at 2 hrs by LC-MS/MS analysis; assay type: ADME, organism-based; settings: in vivo
[28] = AUC(0 to t) in Sprague-Dawley rat at 10 mg/kg, po measured at 2 hrs by LC-MS/MS analysis; assay type: ADME, organism-based; settings: in vivo
N2a [29] = experiment: Neuroprotective activity against OGD/R induced cell injury in mouse N2a cells assessed as decrease in caspase-3 activity incubated for 24 hrs; assay type: functional, cell-based; settings: dose 0.1-100 µM
N2a [30] = experiment: Neuroprotective activity against OGD/R induced cell injury in mouse N2a cells assessed as inhibition of cell damage at 0.1 to 100 uM incubated for 24 hrs; assay type: functional, cell-based; settings: dose 0.1-100 µM
N2a [31] = experiment: Neuroprotective activity against OGD/R induced cell injury in mouse N2a cells assessed as reduction in apoptosis at 0.1 to 100 uM incubated for 24 hrs by TUNEL assay; assay type: functional, cell-based; settings: dose 0.1-100 µM
N2a [32] = experiment: Neuroprotective activity against OGD/R induced cell membrane integrity loss in mouse N2a cells assessed as reduction in LDH release at 0.1 to 100 uM incubated for 24 hrs; assay type: functional, cell-based; settings: dose 0.1-100 µM
Mus musculus [33] = experiment: Neuroprotective activity against tMCAO-reperfusion induced brain injury in iv dosed SPF C57 mouse model assessed as reduction in infarction region measured after 24 hrs; assay type: functional, organism-based; settings: dose 3-30 mg/kg
Mus musculus [34] = experiment: Neuroprotective activity against tMCAO-reperfusion induced brain injury in SPF C57 mouse model assessed as reduction in infarct volume at 30 mg/kg, iv measured after 24 hrs (reference value: 41.48%); assay type: functional; set-up: scale not given: the % may be the effect or the level left
Mus musculus [35] = experiment: Neuroprotective activity against tMCAO-reperfusion induced brain injury in SPF C57 mouse model assessed as decrease in neurological deficit score at 30 mg/kg, iv measured after 24 hrs; assay type: functional
Mus musculus [36] = experiment: Neuroprotective activity against tMCAO-reperfusion induced brain injury in SPF C57 mouse model assessed as reduction in infarct volume at 10 mg/kg, iv measured after 24 hrs; assay type: functional; set-up: scale not given: the % may be the effect or the level left
Mus musculus [37] = experiment: Neuroprotective activity against tMCAO-reperfusion induced brain injury in SPF C57 mouse model assessed as reversal of reduced blood flow in semi-dark band area infarct volume at 3 to 30 mg/kg, iv measured after 24 hrs; assay type: functional, organism-based; settings: dose 3-30 mg/kg
Mus musculus [38] = experiment: Neuroprotective activity against tMCAO-reperfusion induced brain injury in SPF C57 mouse model assessed as reduction in brain water content at 30 mg/kg, iv measured after 24 hrs; assay type: functional, organism-based
Mus musculus [39] = experiment: Neuroprotective activity against tMCAO-reperfusion induced brain injury in iv dosed SPF C57 mouse model assessed as decrease in cleaved caspase-3 expression measured after 24 hrs by Western blotting analysis; assay type: functional, organism-based; settings: dose 3-30 mg/kg
Mus musculus [40] = experiment: Neuroprotective activity against tMCAO-reperfusion induced brain injury in iv dosed SPF C57 mouse model assessed as decrease in Bax expression measured after 24 hrs by Western blotting analysis; assay type: functional, organism-based; settings: dose 3-30 mg/kg
Mus musculus [41] = experiment: Neuroprotective activity against tMCAO-reperfusion induced brain injury in iv dosed SPF C57 mouse model assessed as decrease in cytochrome C expression measured after 24 hrs by Western blotting analysis; assay type: functional, organism-based; settings: dose 3-30 mg/kg
Mus musculus [42] = experiment: Neuroprotective activity against photo-thrombotic SPF C57 mouse model assessed as change in motor function at 30 mg/kg, po measured after day 1 to 3; assay type: functional, organism-based
Mus musculus [43] = organism: Mus musculus; experiment: Neuroprotective activity against photo-thrombotic SPF C57 mouse model assessed as decrease in sensorimotor impairment measured after day 4 to 7; assay type: functional, organism-based
Mus musculus [44] = experiment: Neuroprotective activity against photo-thrombotic SPF C57 mouse model assessed as improvement in motor function at 30 mg/kg, po administered daily for 7 days; assay type: functional, organism-based; settings: time 7.0 day
N2a [45] = experiment: Neuroprotective activity against OGD/R induced cell injury in mouse N2a cells assessed as decrease in apoptotic ratio at 10 uM incubated for 24 hrs; assay type: functional; set-up: scale not given: the % may be the effect or the level left

With CCCCC(O)c1ccc(Br)cc1-c1nn[nH]n1 (stereo unspecified) the viability at 10 µM (N2a [1]) was 56.6%, the Tmax ([2]; po, 10 mg/kg, 8 h) was 120 min and the t1/2 ([3]; po, 10 mg/kg, 8 h) was 287 min. The Cmax ([4]; po, 10 mg/kg, 8 h) was 1130 ng/mL, the AUC(0-t) at 8 h [5] was 6990 ng·h/mL and the AUC ([6]; po, 10 mg/kg, 8 h) was 11160 ng·h/mL. The half-life at 50 µM [7] was > 186 min, the microsomal CLint at 50 µM [8] was < 7.4 µL/min/mg and the half-life at 50 µM [9] was > 186 min. The microsomal CLint at 50 µM [10] was < 7.4 µL/min/mg, the half-life at 50 µM [11] was > 186 min and the microsomal CLint at 50 µM [12] was < 7.4 µL/min/mg. For the same molecule, the half-life at 50 µM [13] was 38.2 min, the microsomal CLint at 50 µM [14] was 36.3 µL/min/mg and the half-life at 50 µM [15] was 15.6 min. It also gave a microsomal CLint at 50 µM [16] of 89.1 µL/min/mg, a Tmax [17] of 15 min and a half-life [18] of 30.6 min. It also gave a Cmax [19] of 8710 ng/mL, an AUC(0-t) at 8 h [20] of 5240 ng·h/mL and an AUC(0-inf) [21] of 5590 ng·h/mL. For the same molecule, the bioavailability [22] was 94.9%, the Tmax [23] was 4.8 min and the Cmax [24] was 3760 ng/mL. It also gave an AUC(0-t) at 8 h [25] of 550 ng·h/mL, an AUC(0-inf) [26] of 550 ng·h/mL and a Cmax [27] of 1070 ng/mL. The AUCt [28] was 5240 ng·h/mL, the Activity (N2a [29]) was “Dose-Dependent Effect” and the Activity (N2a [30]) was “Active”. For the same molecule, the Activity (N2a [31]) was “Active”, the Activity (N2a [32]) was “Active” and the Activity (Mus musculus [33]) was “Dose-Dependent Effect”. It also gave an Activity (Mus musculus [34]) of 9.59%, an Activity (Mus musculus [35]) of 2.07 and an Activity (Mus musculus [36]) of 18.8%. For the same molecule, the Activity (Mus musculus [37]) was “Active”, the Activity (Mus musculus [38]) was “Active” and the Activity (Mus musculus [39]) was “Dose-Dependent Effect”. The Activity (Mus musculus [40]) was “Dose-Dependent Effect”, the Activity (Mus musculus [41]) was “Dose-Dependent Effect” and the Activity (Mus musculus [42]) was “Active”. The Activity (Mus musculus [43]) was “Dose-Dependent Effect” and the Activity (Mus musculus [44]) was “Active”.

Work on CCCC(O)c1ccc(C2=CCCCC2)cc1-c1nn[nH]n1 (stereo unspecified) yielded a viability at 10 µM (N2a [1]) of 39.1%.

With CCCCC(O)c1ccccc1-c1ccc[nH]1 (stereo unspecified) the viability at 10 µM (N2a [1]) was 38.6%.

For CCCC(O)c1ccccc1-c1nn[nH]n1 (stereo unspecified), the viability at 10 µM (N2a [1]) was 35.6%.

CCCCC1OC(=O)c2ccccc21 (stereo not drawn) [RAC-3-N-BUTYLPHTHALIDE] showed a viability at 10 µM (N2a [1]) of 36.6%, an Activity (N2a [45]) of 130.83% and an Activity (Mus musculus [36]) of 25.43%.

Work on CCCCC(O)c1cc(Br)ccc1-c1nn[nH]n1 (stereo unspecified) yielded a viability at 10 µM (N2a [1]) of 37.6%, a Tmax ([2]; Sprague-Dawley, read-out: Tmax) of 15 min and an AUC(0-t) at 8 h [5] of 2670 ng·h/mL.

Molecule CCCCC(O)c1ccc(Br)cc1-c1nnn(C2CC2)n1 (stereo unspecified) has a viability at 10 µM (N2a [1]) of 50.6%.

Molecule CCCCCC(O)c1ccccc1-c1nn[nH]n1 (stereo unspecified) has a viability at 10 µM (N2a [1]) of 35.6%.

CCCCC(O)c1ccccc1-c1nn[nH]n1 (stereo unspecified) gave a viability at 10 µM (N2a [1]) of 40.5%, a Tmax ([2]; Sprague-Dawley, read-out: Tmax) of 15 min and a half-life ([3]; Sprague-Dawley) of 279 min. For the same molecule, the Cmax ([4]; Sprague-Dawley, read-out: Cmax) was 12200 ng/mL, the AUC(0-t) at 8 h [5] was 26500 ng·h/mL and the AUC(0-inf) ([6]; Sprague-Dawley) was 37100 ng·h/mL.
